{"source": "patent US20090062337A1", "about": "“Treatment of Microbial Infections” (WYSIS TECHNOLOGY FOUNDATION, INC., priority 2007, published 2009)", "tested_on": "Burkholderia cepacia", "assay": "MIC against Burkholderia cepacia", "type": "cell-based", "settings": "Table 2; comparison of compounds against Burkholderia cepacia"}
{"smiles": "Nc1ccnc2ccccc12", "note": "[4-aminoquinoline]", "values": [{"measurement": "MIC", "value": 40, "unit": "µg/mL"}]}
{"smiles": "Oc1ccc2ccccc2n1", "note": "[2-hydroxyquinolone]", "values": [{"measurement": "MIC", "value": "> 128", "unit": "µg/mL"}]}
